From the NIST ThermoML archive (doi:10.1021/je050402s)

Assay: xn = mol fraction of the nth substance listed
Conditions: 100.5 kPa, Liquid

CCOC(=O)c1ccccc1O [ethyl 2-hydroxybenzoate] + CCO
Conditions | mass density, 288.15 K [kg/m3] | mass density, 298.15 K [kg/m3] | mass density, 308.15 K [kg/m3] | mass density, 318.15 K [kg/m3] | viscosity, 288.15 K [mPa·s] | viscosity, 298.15 K [mPa·s] | viscosity, 308.15 K [mPa·s] | viscosity, 318.15 K [mPa·s]
x1 = 0.05 | 835.47 | 826.63 | 817.7 | 808.61 | 1.398 | 1.145 | 0.953 | 0.802
x1 = 0.1 | 871.02 | 862 | 852.86 | 843.56 | 1.467 | 1.197 | 0.998 | 0.836
x1 = 0.15 | 901.89 | 892.7 | 883.41 | 873.95 | 1.533 | 1.258 | 1.043 | 0.877
x1 = 0.2 | 928.98 | 919.64 | 910.21 | 900.63 | 1.615 | 1.322 | 1.094 | 0.915
x1 = 0.25 | 952.87 | 943.42 | 933.9 | 924.22 | 1.708 | 1.388 | 1.147 | 0.957
x1 = 0.3 | 974.13 | 964.62 | 955.01 | 945.25 | 1.8 | 1.455 | 1.198 | 0.999
x1 = 0.35 | 993.22 | 983.64 | 973.96 | 964.15 | 1.902 | 1.526 | 1.254 | 1.045
x1 = 0.4 | 1010.45 | 1000.81 | 991.08 | 981.22 | 2.001 | 1.598 | 1.313 | 1.093
x1 = 0.45 | 1026.08 | 1016.38 | 1006.61 | 996.72 | 2.104 | 1.677 | 1.373 | 1.141
x1 = 0.5 | 1040.36 | 1030.63 | 1020.8 | 1010.88 | 2.209 | 1.757 | 1.435 | 1.192
x1 = 0.55 | 1053.4 | 1043.63 | 1033.79 | 1023.85 | 2.317 | 1.838 | 1.498 | 1.242
x1 = 0.6 | 1065.37 | 1055.57 | 1045.7 | 1035.76 | 2.428 | 1.921 | 1.561 | 1.294
x1 = 0.65 | 1076.35 | 1066.53 | 1056.65 | 1046.7 | 2.543 | 2.006 | 1.627 | 1.347
x1 = 0.7 | 1086.51 | 1076.67 | 1066.79 | 1056.85 | 2.664 | 2.096 | 1.695 | 1.403
x1 = 0.75 | 1095.97 | 1086.12 | 1076.24 | 1066.31 | 2.8 | 2.187 | 1.766 | 1.463
x1 = 0.8 | 1104.72 | 1094.88 | 1085.02 | 1075.11 | 2.943 | 2.288 | 1.846 | 1.527
x1 = 0.85 | 1112.93 | 1103.09 | 1093.24 | 1083.37 | 3.1 | 2.398 | 1.932 | 1.596
x1 = 0.9 | 1120.61 | 1110.81 | 1101 | 1091.17 | 3.268 | 2.522 | 2.03 | 1.678
x1 = 0.95 | 1127.85 | 1118.07 | 1108.31 | 1098.55 | 3.503 | 2.706 | 2.163 | 1.781
x1 = 1 | 1134.72 | 1125 | 1115.29 | 1105.6 | 3.694 | 2.831 | 2.253 | 1.842

CCOC(=O)CC(C)C [ethyl 3-methylbutanoate] + CCO
viscosity [mPa·s], Capillary tube (Ostwald / Ubbelohde) method
Conditions | 288.15 K | 298.15 K | 308.15 K | 318.15 K
x1 = 0.05 | 1.229 | 1.02 | 0.852 | 0.715
x1 = 0.1 | 1.125 | 0.945 | 0.793 | 0.668
x1 = 0.15 | 1.057 | 0.891 | 0.75 | 0.638
x1 = 0.2 | 1.002 | 0.848 | 0.718 | 0.618
x1 = 0.25 | 0.966 | 0.815 | 0.695 | 0.6
x1 = 0.3 | 0.935 | 0.791 | 0.677 | 0.587
x1 = 0.35 | 0.908 | 0.771 | 0.663 | 0.579
x1 = 0.4 | 0.886 | 0.754 | 0.653 | 0.571
x1 = 0.45 | 0.867 | 0.742 | 0.645 | 0.565
x1 = 0.5 | 0.855 | 0.733 | 0.638 | 0.559
x1 = 0.55 | 0.847 | 0.724 | 0.631 | 0.554
x1 = 0.6 | 0.84 | 0.719 | 0.624 | 0.55
x1 = 0.65 | 0.835 | 0.713 | 0.62 | 0.548
x1 = 0.7 | 0.83 | 0.713 | 0.618 | 0.547
x1 = 0.75 | 0.827 | 0.714 | 0.619 | 0.546
x1 = 0.8 | 0.83 | 0.716 | 0.621 | 0.549
x1 = 0.85 | 0.833 | 0.722 | 0.625 | 0.552
x1 = 0.9 | 0.839 | 0.727 | 0.631 | 0.556
x1 = 0.95 | 0.845 | 0.729 | 0.634 | 0.56
x1 = 1 | 0.853 | 0.739 | 0.642 | 0.566

mass density [kg/m3]
Conditions | 288.15 K | 298.15 K | 308.15 K | 318.15 K
x1 = 0.05 | 802.64 | 793.85 | 784.95 | 775.9
x1 = 0.1 | 810.36 | 801.39 | 792.29 | 783.04
x1 = 0.15 | 817.13 | 807.99 | 798.73 | 789.31
x1 = 0.2 | 823.05 | 813.77 | 804.39 | 794.81
x1 = 0.25 | 828.3 | 818.9 | 809.39 | 799.73
x1 = 0.3 | 833.01 | 823.53 | 813.92 | 804.15
x1 = 0.35 | 837.23 | 827.65 | 817.96 | 808.12
x1 = 0.4 | 841.07 | 831.42 | 821.66 | 811.75
x1 = 0.45 | 844.57 | 834.87 | 825.05 | 815.07
x1 = 0.5 | 847.78 | 838.02 | 828.15 | 818.12
x1 = 0.55 | 850.72 | 840.93 | 831.01 | 820.95
x1 = 0.6 | 853.42 | 843.59 | 833.64 | 823.56
x1 = 0.65 | 855.93 | 846.06 | 836.09 | 826
x1 = 0.7 | 858.27 | 848.38 | 838.38 | 828.28
x1 = 0.75 | 860.46 | 850.55 | 840.55 | 830.44
x1 = 0.8 | 862.52 | 852.6 | 842.6 | 832.48
x1 = 0.85 | 864.44 | 854.52 | 844.51 | 834.44
x1 = 0.9 | 866.27 | 856.34 | 846.34 | 836.27
x1 = 0.95 | 868.03 | 858.12 | 848.15 | 838.1
x1 = 1 | 869.66 | 859.78 | 849.83 | 839.81
